From patent US10300052B2, “Methods for increasing CFTR activity” (THE UAB RESEARCH FOUNDATION, priority 2012, dated 2019)
Entries after “also recorded” stand apart in the source; their conditions may differ.

Tests used:
HBE cells = test: μOCT imaging of airway epithelial function in HBE cells containing WT-CFTR; type: cell-based, human
Description: ASL depth is shown as red bar. White scale bar=10 μm.
FIGS. 4A-4D show the effects of CFTR activators on airway epithelial function in human bronchial epithelial cells by μOCT. Control HBE cells containing a defective CFTR (designated control, CF) and HBE cells containing a WT-CFTR (designated control and VX-770, wild-type) received vehicle alone (control; 0.2% DMSO) or ivacaftor (10 μM). FIGS. 4A-4D show ASL depth (FIG. 4A), PCL depth (FIG. 4B), cilia beat frequency (FIG. 4C), and mucociliary transport (MCT) rate (FIG. 4D) as quantified from μOCT images.
FIGS. 5A-5D show the effects of CFTR activators on airway epithelial function in human bronchial epithelial cells by μOCT. […] CSE was applied apically and ivacaftor basolaterally. Cells were exposed to each condition for 24 hrs. ASL depth is shown as a dark bar. White scale bar=10 μm. FIGS. 5B-5D show ASL depth (FIG. 5B), cilia beat frequency (FIG. 5C), and mucociliary transport (MCT) rate (FIG. 5D) as quantified from μOCT images. Data are derived from 5 measures per well, and 3 wells per condition.
The effect of CFTR activators was evaluated using μOCT imaging in HBE cells (FIGS. 4A-4D). […] Mucus and the PCL layer that together comprise the airway surface liquid (ASL) layer can also be clearly visualized. As shown in FIGS. 4A-4D, from top to bottom, the air has no μOCT signal, while the mucus layer appears heterogeneous with high μOCT signal intensity. The PCL gel has a low μCT signal intensity compared with the mucus and monolayer and includes ciliary structures. The air-liquid interface, mucus-PCL interface, and apical cell surface are clearly defined so that ASL and PCL heights can be directly measured with submicrometer resolution. In addition to the different layers, cilia tips can be readily detected by μOCT, as they are brighter than the surrounding PCL and mucus. The tips maintain contact with the deep surface of mucus blanket and lift the mucus nearby by a few hundred nanometers during the effective stroke.
The results in this example, illustrated in FIGS. 4A-4D, confirm the results shown above that CFTR activators increase the activity of WT-CFTR. In FIGS. 4A-4D, control HBE cells containing a defective CFTR (designated control, CF) were used along with HBE cells containing a WT-CFTR (designated control and VX-770, wild-type). Control cells received vehicle alone (0.2% DMSO); ivacaftor was used in all cases at 10 μM. […] In terms of PCL depth, the PCL only extends approximately 7 microns (corresponding to the depth of the full length cilia); further increases are difficult to detect. For CBF, the rate of CBF may not be rate limiting in all conditions. For example, if the cilia were beating against thick mucus (caused for example by mucus overproduction or the inability to clear mucus normally), the CBF would be slower. However, in this assays the determination of CBF is made versus a normal control making meaning an increase in CBF may not be detected in all cases.
Data in FIGS. 5A-5D are derived from 5 measurements per well, with three wells per condition. In FIGS. 5A-5D, all cells contained WT-CFTR; control cells received DMSO vehicle ([…]), CSE indicates cells received 2% CSE extract administered apically; CSE indicates cells received 2% CSE extract administered apically and 10 μM ivacaftor administered basolaterally; VX-770 indicates cells received 10 μM ivacaftor administered basolaterally. All data were derived from μOCT images as described herein.
(§1) The μOCT system is a spectral-domain OCT implementation with several improvements to standard OCT that yield high resolution in both lateral and axial directions. The general layout and axial resolution characterization have been described (Liu et al., PLOSOne, 8(1), E54473-2013). A super-continuum source (Fianium SC450) provides the high-bandwidth, short coherence length light necessary for high axial resolution ([…]). […]

human bronchial tissue = test: μOCT imaging of airway epithelial function in human bronchial tissue
Description: FIGS. 6A-6C show the effects of CFTR activators on airway epithelial function in human bronchial tissue by μOCT. FIGS. 6A-6C show ASL depth (FIG. 6A), CBF (FIG. 6B) and MCT (FIG. 6C), respectively in response to ivacaftor treatment (10 μM).
To further investigate the role of CFTR activators in modulating airway epithelial cell function, CFTR activators were studied in combination with human bronchial tissue from a failed healthy donor. Human bronchial tissue was obtained and maintained as described herein. Control experiments were performed with the human bronchial tissue being exposed to DMSO control only (0.2%) and compared to ivacaftor treatment. FIGS. 6A-6C show ASL depth, CBF and MCT, respectively.
Samples of human trachea tissue were obtained from normal donor explant organs not selected for lung transplantation. Lung, mainstem bronchi, and trachea were resected en-bloc, transferred on wet ice, and large airways excised. Airway tissues were then immersed in ice cold DMEM following resection for transfer, then allowed to equilibrate to room temperature prior to mOCT imaging.
as §1
μOCT imaging was performed on various cells cultures with illumination incident on the apical side of the cells. […] ASL and PCL were measured directly from the thicknesses of the visible layers in the image with a correction applied for the index of refraction in the liquid (n=1.33). ASL and PCL were evaluated at 5 equally distributed regions of the image. CBF and MCT were determined from a time series of images. […] Up to 10 regions of ciliary activity per image sequence were assessed for CBF. […]

CC(C)(C)c1cc(C(C)(C)C)c(NC(=O)c2c[nH]c3ccccc3c2=O)cc1O [ivacaftor]
MCT (HBE cells; 2% CSE apically plus ivacaftor 10 μM basolaterally, 24 hrs (FIG. 5D)): increased MCT to that seen in the control cells
ASL depth (HBE cells; 2% CSE apically plus ivacaftor 10 μM basolaterally, 24 hrs, vs CSE (FIG. 5B)): significantly increased
PCL depth (HBE cells; ivacaftor 10 μM, as compared to control CF HBE cells (FIG. 4B)): increased
CBF (HBE cells; ivacaftor 10 μM, as compared to control CF HBE cells (FIG. 4C)): increased
overall MCT (HBE cells; ivacaftor 10 μM, as compared to control wild-type and control CF cells (FIG. 4D)): increased significantly
PCL depth (HBE cells; ivacaftor 10 μM, in comparison to control wild-type (FIG. 4B)): not increased in a statistically significant manner
CBF (HBE cells; ivacaftor 10 μM, in comparison to control wild-type (FIG. 4C)): not increased in a statistically significant manner
ASL depth (HBE cells; ivacaftor 10 μM, vs control wild-type and control CF HBE cells (FIG. 4A)): increased ASL depth significantly above control
ASL depth (HBE cells; ivacaftor alone 10 μM basolaterally, 24 hrs, vs control (FIG. 5B)): significantly increased
MCT (HBE cells; ivacaftor alone 10 μM basolaterally, 24 hrs, vs control (FIG. 5D, FIG. 2D)): robust enhancement; also recorded: significantly increased
CBF frequency (human bronchial tissue; ivacaftor 10 μM vs DMSO control (FIG. 6B)): significantly increased
ASL depth (human bronchial tissue; ivacaftor 10 μM, DMSO control approximately 10 microns (FIG. 6A)): approximately 30 microns
MCT (human bronchial tissue; ivacaftor 10 μM, control less than 0.01 mm/min (FIG. 6C)): ~0.04 mm/min
